Laboratory results published in US20140155445A1, “Compounds and Methods for Treating Cancer and Diseases of the Central Nervous System” (Osta Biotechnologies Inc., priority 2007, published 2014).
Structures can show the parent of a compound that is named as a salt. Where two headings read alike, the source gives them in different places.

Experiments:
HO-2 (rat brain) = molecular target: T1, HO-2 (rat brain) (Rattus norvegicus, UniProt P23711); assay: HO enzymatic activity in rat brain microsomal fraction (CO formed from methemalbumin, gas chromatography); format: biochemical
T1 construct: brain microsomes were used as a source of HO-2; from tissue; host or cells: brain microsomal fraction of adult male Sprague-Dawley rats
T1 sequence (P23711 1-315): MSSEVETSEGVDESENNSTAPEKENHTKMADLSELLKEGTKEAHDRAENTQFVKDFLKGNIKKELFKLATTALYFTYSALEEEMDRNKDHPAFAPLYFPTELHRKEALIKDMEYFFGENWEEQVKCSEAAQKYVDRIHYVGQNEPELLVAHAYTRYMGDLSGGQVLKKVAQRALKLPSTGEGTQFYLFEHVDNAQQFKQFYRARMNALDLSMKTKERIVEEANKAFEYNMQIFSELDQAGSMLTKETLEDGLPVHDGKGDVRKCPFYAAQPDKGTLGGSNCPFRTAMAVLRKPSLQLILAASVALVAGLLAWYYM
Description: (§1) Incubations for HO activity analysis were done under conditions for which the rate of CO formation (pmol CO×min^−1×mg protein^−1) was linear with respect to time and microsomal protein concentration. Briefly, reaction mixtures (150 μL) consisting of 100 mM phosphate buffer (pH 7.4), 50 μM methemalbumin, and 1 mg/mL protein were pre-incubated with the inhibitors at final concentrations ranging from 0.1-100 μM for 10 minutes at 37° C. Reactions were initiated by adding NADPH at a final concentration of 1 mM and incubations were performed for an additional 15 minutes at 37° C.
(§2) Incubations for HO activity analysis were done under conditions for which the rate of CO formation (pmol CO/mg protein/minute) was linear with respect to time and microsomal protein concentration. Briefly, reaction mixtures (150 μL) consisting of 100 mM phosphate buffer (pH 7.4), 50 μM methemalbumin and 1 mg/mL protein were pre-incubated with the vehicle (ethanol or water in which the inhibitors were dissolved), or inhibitors at final concentrations ranging from 0.1-1000 μM for 10 minutes at 37° C. Reactions were initiated by adding β-NADPH at a final concentration of 1 mM and incubations were carried out for an additional 15 minutes at 37° C. Reactions were stopped by instantly freezing the reaction mixture on pulverized dry ice and CO formation was measured by gas chromatography using a TA 3000R Process Gas Analyzer (Trace Analytical/Ametek, Newark, Del., USA).
(§3) The values on the abscissa represent the decimal logarithm of the inhibitor's concentration (in μM), whereas the values of the activity on the ordinate are expressed as a percentage of the control experiments without inhibitor.
(§4) The IC50 values for the replicate experiments were employed to generate the reported standard deviation value.

HO-1 (rat spleen) = molecular target: T2, HO-1 (rat spleen) (Rattus norvegicus, UniProt P06762); assay: HO enzymatic activity in rat spleen microsomal fraction (CO formed from methemalbumin, gas chromatography); format: biochemical
T2 construct: Spleen microsomes were used as a source of HO-1; from tissue; host or cells: spleen microsomal fraction of adult male Sprague-Dawley rats
T2 sequence (P06762 1-289): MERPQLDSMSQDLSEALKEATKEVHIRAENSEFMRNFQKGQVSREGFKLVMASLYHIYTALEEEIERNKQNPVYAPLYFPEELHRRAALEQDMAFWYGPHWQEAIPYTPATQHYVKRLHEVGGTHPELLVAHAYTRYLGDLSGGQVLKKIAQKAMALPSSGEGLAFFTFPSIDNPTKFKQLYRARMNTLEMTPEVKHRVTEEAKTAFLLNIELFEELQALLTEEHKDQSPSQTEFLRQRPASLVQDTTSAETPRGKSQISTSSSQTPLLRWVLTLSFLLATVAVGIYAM
Description: as §1, §2, §3, §4

[1] = rat brain microsomes, average ± standard deviation of replicate experiments, read-out: IC50 HO-2 (rat brain)/μM
[2] = rat spleen microsomes, average ± standard deviation of replicate experiments, read-out: IC50 HO-1 (rat spleen)/μM

Row | Compound | IC50 (HO-2 (rat brain); [1]) [µM] | IC50 (HO-1 (rat spleen); [2]) [µM] | also measured
1 | c1ccc(CCCn2ccnc2)cc1 [1-(3-Phenyl-propyl)-1H-imidazole hydrochloride] | > 100 | 14 ± 4 | 
2 | CSc1ncnn1CC(=O)CCc1ccccc1 [1-(5-Methylsulfanyl-[1,2,4]triazol-1-yl)-4-phenyl-butan-2-one hydrochloride] | > 100 | > 100 | 
3 | C[C@H]1CO[C@@](CCc2ccc(Cl)cc2)(Cn2ccnc2)O1 [(2R,4S)-2-[2-(4-chlorophenyl)ethyl]-2-[(1H-imidazol-1-yl)methyl]-4-methyl-1,3-dioxolane hydrochloride] |  | 2.6 ± 0.4 | IC50 (HO-2 (rat brain)): > 100 µM
4 | C[C@@H]1CO[C@](CCc2ccc(Cl)cc2)(Cn2ccnc2)O1 [(2S,4R)-2-[2-(4-chlorophenyl)ethyl]-2-[(1H-imidazol-1-yl)methyl]-4-methyl-1,3-dioxolane hydrochloride] | > 100 | 20 ± 4 | 
5 | O=C(Cn1ccnc1)c1ccc(OCc2ccccc2)cc1 [1-(4-Benzyloxy-phenyl)-2-(1H-imidazol-1-yl)-ethanone] | > 100 | 11 ± 3 | 
6 | c1ccc2[nH]c(NC3CCNCC3)nc2c1 | > 100 | > 100 | 
7 | Cl.OC(Cn1ccnc1)Cn1ccnc1 [1,3-Di-(1H-imidazol-1-yl)propan-2-ol dihydrochloride] |  |  | IC50 HO-2 (rat brain)/μM (HO-2 (rat brain); rat brain microsomes, average ± standard deviation of replicate experiments): Inactive; IC50 HO-1 (rat spleen)/μM (HO-1 (rat spleen); rat spleen microsomes, average ± standard deviation of replicate experiments): Inactive
8 | O=C(Cn1cncn1)c1ccc(Cl)c(Cl)c1 [1-(3,4-Dichloro-phenyl)-2-[1,2,4]triazol-1-yl-ethanone hydrochloride] | > 100 | 1.3 ± 0.5 | 
9 | O=C(CCCc1ccccc1)Cn1ccnc1 [1-imidazol-1-yl-5-phenyl-pentan-2-one hydrochloride] | 6 ± 0.1 | 1.5 ± 0.2 | 
10 | COc1ccc(CCN2CCC(Nc3nc4cc(Cl)c(Cl)cc4n3Cc3ccc(F)cc3)CC2)cc1 | > 100 | > 100 | 
11 | c1ccc(-n2ccnc2)cc1 [1-Phenyl-1H-imidazole hydrochloride] | > 100 | > 100 | 
12 | c1cn(CC23CC4CC(CC(C4)C2)C3)cn1 [1-adamantan-1-ylmethyl-1H-imidazole hydrochloride] | > 100 | 2.2 ± 0.5 | 
13 | COC(=O)c1cncn1CC(=O)CCc1ccccc1 [3-(2-Oxo-4-phenyl-butyl)-3H-imidazole-4-carboxylic acid methyl ester] |  | 69 ± 19 | 
14 | O=C(CCc1ccc(Br)cc1)Cn1cncn1 [4-(4-bromophenyl)-1-[1,2,4]triazol-1-yl-butan-2-one hydrochloride] |  | 0.39 ± 0.02 | 
15 | Brc1ccc(C2(Cn3cncn3)OCCO2)cc1 [1-[2-(4-bromo-phenyl)-[1,3]dioxolan-2-ylmethyl]-1H-[1,2,4]triazole] | > 100 |  | 
16 | O=C(CCc1ccc(Br)cc1)Cn1ccnc1 [4-(4-bromophenyl)-1-(1H-imidazol-1-yl)butan-2-one hydrochloride] |  | 1.7 ± 0.7 | 
17 | Fc1ccc(CCC2(Cn3ccnc3)OCCO2)cc1 [2-[2-(4-fluorophenyl)ethyl]-2-[(1H-imidazol-1-yl)methyl]-1,3-dioxolane hydrochloride] | > 100 |  | 
18 | OC(Cn1cncn1)(Cn1cncn1)c1ccc(F)cc1F [Fluconazole, reference compound] |  | 80 ± 6 | 
19 | O=C(Cn1ccnc1)c1ccc(Cl)c(Cl)c1 [1-(3,4-Dichloro-phenyl)-2-imidazol-1-yl-ethanone] |  | 1.24 ± 0.07 | 
20 | O=C(CCc1ccccc1)Cn1cccn1 [4-phenyl-1-pyrazol-1-yl-butan-2-one hydrochloride] | > 100 |  | 
21 | Nc1ccc(SC[C@H]2CO[C@@](CCc3ccc(Cl)cc3)(Cn3ccnc3)O2)cc1 [(2R,4R)-2-[2-(4-chlorophenyl)ethyl]-2-[(1H-imidazol-1-yl)methyl]-4-[{(4-aminophenyl)thio}meth-yl]-1,3-dioxolane dihydrochloride] |  |  | IC50 (HO-2 (rat brain)): > 100 µM

Row | Compound | IC50 (HO-2 (rat brain); [1]) [µM] | IC50 (HO-1 (rat spleen); [2]) [µM] | also measured
22 | Nc1ccc(SC[C@@H]2CO[C@](CCc3ccc(Cl)cc3)(Cn3ccnc3)O2)cc1 [(2S,4S)-2-[2-(4-chlorophenyl)ethyl]-2-[(1H-imidazol-1-yl)methyl]-4-[{(4-aminophenyl)thio}meth-yl]-1,3-dioxolane dihydrochloride] |  |  | IC50 (HO-1 (rat spleen)): 5 ± 2 µM
23 | O=C(CCc1ccc(F)cc1)Cn1ccnc1 [4-(4-fluorophenyl)-1-(1H-imidazol-1-yl)butan-2-one hydrochloride] |  | 2.7 ± 0.9 | 
24 | CC(C)(C(=O)c1ccccc1)n1ccnc1 [2-Imidazol-1-yl-2-methyl-1-phenyl-propan-1-one] | > 100 |  | 
25 | COc1ccc(CCN2CCC(Nc3nc4ccccc4n3Cc3ccc(F)cc3)CC2)cc1 [Astemizole, reference compound] | 30 ± 5 |  | 
26 | O=C(/C=C/c1ccccc1)CCn1ccnc1 [5-(1H-Imidazol-1-yl)-1-phenyl-pent-1-en-3-one hydrochloride] |  | 22.6 ± 0.8 | 
27 | OC(CCc1ccc(Br)cc1)Cn1ccnc1 (racemic) [(±)-4-(4-bromophenyl)-1-(1H-imidazol-1-yl)butan-2-ol hydrochloride] |  | 0.14 ± 0.06 | 
28 | O=C(CCc1ccccc1)Cn1nccn1 [4-phenyl-1-[1,2,3]triazol-2-yl-butan-2-one] | > 100 |  | 
29 | Nc1ccccc1SC[C@@H]1CO[C@](CCc2ccc(Cl)cc2)(Cn2ccnc2)O1 [(2S,4S)-2-[2-(4-chlorophenyl)ethyl]-2-[(1H-imidazol-1-yl)methyl]-4-[{(2-aminophenyl)thio}meth-yl]-1,3-dioxolane dihydrochloride] |  | 5 ± 0.3 | 
30 | O=C(Cn1ccnc1)c1cccc2ccccc12 [2-imidazol-1-yl-1-naphthalen-1-yl-ethanone hydrochloride] |  | 2.2 ± 0.1 | 
31 | Nc1ccccc1SC[C@H]1CO[C@@](CCc2ccc(Cl)cc2)(Cn2ccnc2)O1 [(2R,4R)-2-[2-(4-chlorophenyl)ethyl]-2-[(1H-imidazol-1-yl)methyl]-4-[{(2-aminophenyl)thio}meth-yl]-1,3-dioxolane dihydrochloride] | > 100 |  | 
32 | OC(CCc1ccc(F)cc1)Cn1ccnc1 (centres unmarked) [4-(4-fluorophenyl)-1-(1H-imidazol-1-yl)butan-2-ol hydrochloride] |  | 1.4 ± 1.1 | 
33 | O=C(Cn1ccnc1)C12CC3CC(CC(C3)C1)C2 [1-(adamantan-1-yl)-2-imidazol-1-yl-ethanone hydrochloride] |  | 7 ± 1 | 
34 | O=C(CCc1ccccc1)Cn1ccnn1 [4-phenyl-1-(1H-[1,2,3]triazol-1-yl)butan-2-one] | > 100 |  | 
35 | CC(=O)CCc1ccc(Br)cc1 [4-(4-bromophenyl)butan-2-one] |  | > 100 | 
36 | O=C(CCc1ccccc1)Cn1cnnn1 [4-Phenyl-1-tetrazol-1-yl-butan-2-one hydrochloride] | 30 ± 4 |  | 
37 | Nc1cccc(SC[C@H]2CO[C@@](CCc3ccc(Cl)cc3)(Cn3ccnc3)O2)c1 [(2R,4R)-2-[2-(4-chlorophenyl)ethyl]-2-[(1H-imidazol-1-yl)methyl]-4-[{(3-aminophenyl)thio}meth-yl]-1,3-dioxolane dihydrochloride] |  |  | IC50 (HO-2 (rat brain)): > 100 µM
38 | Ic1ccc(CCC2(Cn3ccnc3)OCCO2)cc1 [2-[2-(4-iodophenyl)ethyl]-2-[(1H-imidazol-1-yl)methyl]-1,3-dioxolane hydrochloride] | > 100 |  | 
39 | O=C(CCc1ccc(Cl)cc1)Cn1ccnc1 [4-(4-chlorophenyl)-1-(1H-imidazol-1-yl)butan-2-one hydrochloride] |  | 4.7 ± 0.5 | 
40 | Clc1ccc(CC[C@@]2(Cn3ccnc3)OCC(COc3ccc(-c4ccccc4)cc3)O2)cc1 (stereo in doubt) [(2R,4S)-1-{4-(biphenyl-4-yloxymethyl)-2-[2-(4-chloro-phenyl)-ethyl]-[1,3]dioxolan-2-ylmethyl}-1H-imidazole hydrochloride] |  | 2 ± 1 | 
41 | COc1ccc(C(=O)Cn2ccnc2)cc1 [2-Imidazol-1-yl-1-(4-methoxy-phenyl)-ethanone hydrochloride] |  | 39 ± 13 | 
